Measurements: patent publication US5468734A, “Prophylactic and remedial preparation for diseases attendant on hyperglycemia, and wholesome food” (Godo Shusei Co., Ltd., priority 1992, dated 1995)
Where two headings read alike, the source gives them in different places.

Legend:
[1] = system: maltase (carbohydrase derived from rabbit small intestine mucous membrane); experiment: Action to inhibit the hydrolytic activity of homogenate prepared from rabbit small intestine mucous membrane: maltase inhibition; type: biochemical; conditions: for Maltase inhibition rate: substrate maltose 20 mM, pH 6.8, 37° C., 15 minutes
Protocol: (§1) (Action to inhibit the hydrolytic activity of homogenate prepared from rabbit small intestine mucous membrane to carbohydrate)
(§2) A native kind of white rabbits (weight: 3.0-3.5 kg) were sacrificed by exsanguination to take out their small intestines.
(§3) After freezing and thawing the small intestines thus taken out, they were homogenized in a 5 mM EDTA buffer (pH: 7.0) and subjected to centrifugation for 60 minutes at 60,000×g. Precipitate thus formed was collected and suspended again in a 10 mM potassium phosphate buffer (pH: 7.0), thereby obtaining a crude enzyme suspension.
(§4) Sucrose (20 mM) and maltose (20 mM) were used as substrates.
(§5) Each reaction mixture was formulated so as to contain 350 microliters of a 100 mM maleate buffer (pH: 6.8), 100 microliters of a substrate solution, 50 microliters of the crude enzyme suspension and 50 microliters of a test solution. Substances to be tested were separately dissolved in a maleate buffer (pH: 6.8) before use.
(§6) Respective reactions were conducted for 15 minutes at 37° C.

[2] = molecular target: T1, sucrase (carbohydrase derived from rabbit small intestine mucous membrane) (Oryctolagus cuniculus, UniProt P07768); experiment: Action to inhibit the hydrolytic activity of homogenate prepared from rabbit small intestine mucous membrane: sucrase inhibition; type: biochemical; conditions: for inhibition at 2000 µg/mL / inhibition at 500 µg/mL / inhibition at 1000 µg/mL / inhibition at 4000 µg/mL: 0.25 h
T1 construct: suspended again in a 10 mM potassium phosphate buffer (pH: 7.0), thereby obtaining a crude enzyme suspension; from tissue; host or cells: rabbit small intestine (title: mucous membrane), homogenate, 60,000×g precipitate
Protocol: as §1, §2, §3, §4, §5, §6

[3] = 200 mg/dl, substrate sucrose 20 mM, pH 6.8, 37° C., 15 minutes, read-out: Sucrase inhibition rate
[4] = pH 6.8, read-out: Sucrase inhibition rate

T1 sequence (P07768 1008-1827 limits assumed): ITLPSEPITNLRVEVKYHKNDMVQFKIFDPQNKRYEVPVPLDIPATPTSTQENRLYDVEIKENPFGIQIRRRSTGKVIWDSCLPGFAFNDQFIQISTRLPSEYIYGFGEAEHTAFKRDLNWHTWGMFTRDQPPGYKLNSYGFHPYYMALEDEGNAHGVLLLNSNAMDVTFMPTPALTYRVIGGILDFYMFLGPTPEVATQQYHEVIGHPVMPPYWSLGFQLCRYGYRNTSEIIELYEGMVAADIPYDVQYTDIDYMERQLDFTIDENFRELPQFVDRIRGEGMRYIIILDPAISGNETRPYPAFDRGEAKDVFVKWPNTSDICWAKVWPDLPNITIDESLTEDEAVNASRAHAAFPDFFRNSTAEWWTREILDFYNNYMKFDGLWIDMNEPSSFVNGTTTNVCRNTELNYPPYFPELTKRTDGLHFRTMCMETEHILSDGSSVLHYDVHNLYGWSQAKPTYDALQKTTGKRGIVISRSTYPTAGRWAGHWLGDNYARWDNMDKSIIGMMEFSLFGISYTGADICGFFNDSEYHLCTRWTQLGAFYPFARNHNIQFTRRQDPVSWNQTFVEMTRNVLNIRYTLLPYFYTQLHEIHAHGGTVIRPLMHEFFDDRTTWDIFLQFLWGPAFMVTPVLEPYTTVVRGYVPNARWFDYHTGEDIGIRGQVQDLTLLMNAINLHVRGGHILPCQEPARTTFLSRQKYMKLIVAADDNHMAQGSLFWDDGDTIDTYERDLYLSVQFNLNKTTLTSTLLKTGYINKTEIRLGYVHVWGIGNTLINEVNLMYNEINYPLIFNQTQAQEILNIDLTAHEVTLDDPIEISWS
T1 sequence (P07768 2-1007 partner limits assumed): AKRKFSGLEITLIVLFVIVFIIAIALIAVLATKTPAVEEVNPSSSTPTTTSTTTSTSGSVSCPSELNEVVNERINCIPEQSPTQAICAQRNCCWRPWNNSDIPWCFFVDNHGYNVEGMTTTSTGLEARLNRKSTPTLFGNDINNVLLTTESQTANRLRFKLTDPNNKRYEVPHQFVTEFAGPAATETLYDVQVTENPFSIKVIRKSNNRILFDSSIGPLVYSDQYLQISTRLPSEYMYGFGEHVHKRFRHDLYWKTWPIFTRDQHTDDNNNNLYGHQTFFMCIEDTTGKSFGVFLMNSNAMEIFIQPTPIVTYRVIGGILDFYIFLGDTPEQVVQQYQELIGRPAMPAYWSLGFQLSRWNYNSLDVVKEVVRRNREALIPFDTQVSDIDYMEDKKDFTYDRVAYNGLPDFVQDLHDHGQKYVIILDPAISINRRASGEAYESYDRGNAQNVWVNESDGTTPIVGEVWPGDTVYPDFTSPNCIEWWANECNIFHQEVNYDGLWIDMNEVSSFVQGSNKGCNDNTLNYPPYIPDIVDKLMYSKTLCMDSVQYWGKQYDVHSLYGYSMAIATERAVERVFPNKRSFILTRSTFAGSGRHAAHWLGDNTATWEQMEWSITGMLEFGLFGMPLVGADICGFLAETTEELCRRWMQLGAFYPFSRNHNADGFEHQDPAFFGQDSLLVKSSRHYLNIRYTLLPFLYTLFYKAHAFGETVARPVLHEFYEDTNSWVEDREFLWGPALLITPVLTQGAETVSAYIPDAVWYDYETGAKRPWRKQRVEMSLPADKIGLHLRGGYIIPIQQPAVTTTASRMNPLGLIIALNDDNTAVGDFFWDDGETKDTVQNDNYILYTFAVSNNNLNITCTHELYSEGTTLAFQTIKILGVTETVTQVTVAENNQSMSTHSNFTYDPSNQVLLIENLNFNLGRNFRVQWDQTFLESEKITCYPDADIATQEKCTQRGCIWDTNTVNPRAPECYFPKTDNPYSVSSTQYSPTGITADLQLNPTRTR

Compound	Maltase inhibition rate ([1]; 200 mg/dl) [%]	inhibition at 2000 µg/mL [2, 3] [%]	maltase-inhibiting action (in words) [1]	sucrase-inhibiting action (in words) [2]	inhibition at 500 µg/mL ([2]; 50 mg/dl, substrate sucrose 20 mM, pH 6.8, 37° C., 15 minutes, read-out: Sucrase inhibition rate) [%]	inhibition at 1000 µg/mL ([2]; 100 mg/dl, substrate sucrose 20 mM, pH 6.8, 37° C., 15 minutes, read-out: Sucrase inhibition rate) [%]	Maltase inhibition rate ([1]; 50 mg/dl) [%]	Maltase inhibition rate ([1]; 100 mg/dl) [%]	Maltase inhibition rate ([1]; 400 mg/dl) [%]	inhibition at 500 µg/mL [2, 4] [%]	inhibition at 1000 µg/mL [2, 4] [%]	inhibition at 2000 µg/mL [2, 4] [%]	inhibition at 4000 µg/mL [2, 4] [%]
OC[C@H]1O[C@@H](O[C@H]2[C@H](O)[C@@H](O)C(O)O[C@@H]2CO)[C@H](O)[C@@H](O)[C@@H]1O (some centres unmarked) [Cellobiose, reference compound]	2.8	-0.4	–	–	–	–	–	–	–	–	–	–	–
O=C[C@@H](O)[C@H](O)[C@H](O)CO [D-Arabinose, D-arabinose, reference compound]	7.8	11.7	no or little inhibiting action	no or little inhibiting action	4	6.8	–	–	–	–	–	–	–
C[C@@H](O)[C@H](O)[C@H](O)[C@@H](O)C=O [D-Fucose, D-fucose, reference compound]	4.1	8.7	no or little inhibiting action	no or little inhibiting action	–	–	–	–	–	–	–	–	–
N[C@H]1C(O)O[C@H](CO)[C@H](O)[C@@H]1O (stereo partly drawn) [D-Galactosamine, D-galactosamine, reference compound]	-4.5	-6.5	no or little inhibiting action	no or little inhibiting action	–	–	–	–	–	–	–	–	–
O=C[C@H](O)[C@@H](O)[C@@H](O)[C@H](O)CO [D-Galactose, D-galactose, reference compound]	15.3	–	no or little inhibiting action	no or little inhibiting action	–	–	-0.8	13.9	11.8	-0.6	-0.9	6.4	20.2
O=C[C@@H](O)[C@@H](O)[C@H](O)[C@H](O)CO [D-Mannose, D-mannose, reference compound]	25.1	–	no or little inhibiting action	no or little inhibiting action	–	–	3.2	10.6	30.4	-0.7	12.9	19.3	27.8
O=C[C@@H](O)[C@@H](O)[C@@H](O)[C@H](O)CO [D-Talose, D-talose, reference compound]	5.3	–	no or little inhibiting action	no or little inhibiting action	–	–	–	–	–	–	–	5.4	–
OC[C@H]1O[C@@H](OC[C@H]2OC(O)[C@H](O)[C@@H](O)[C@@H]2O)[C@H](O)[C@@H](O)[C@@H]1O (some centres unmarked) [Gentiobiose, reference compound]	1.9	-2.4	–	–	–	–	–	–	–	–	–	–	–
O=C[C@H](O)[C@H](O)[C@@H](O)CO [L-Lyxose, L-lyxose, reference compound]	10.0	-0.2	no or little inhibiting action	no or little inhibiting action	–	–	–	–	–	–	–	–	–
O=C(CO)[C@@H](O)[C@H](O)[C@@H](O)CO [L-Sorbose, L-sorbose, reference compound]	7.5	5.1	no or little inhibiting action	no or little inhibiting action	–	–	–	–	–	–	–	–	–
O=C(CO)[C@H](O)[C@@H](O)CO [L-Xylulose, L-xylulose, reference compound]	6.4	10.8	no or little inhibiting action	no or little inhibiting action	–	–	–	–	–	–	–	–	–
OC1OC[C@@H](O[C@@H]2OC[C@@H](O)[C@H](O)[C@H]2O)[C@H](O)[C@H]1O (some centres unmarked) [reference compound]	5.5	10.7	–	–	–	–	–	–	–	–	–	–	–
